The source of these data is patent US8329686B2, “Isatin analogues and uses therefor” (Washington University, priority 2006, dated 2012).

Where two headings read alike, the source gives them in different places.

What all share (assay type): biochemical
The target in one experiment is T1, caspase-3 (Homo sapiens, UniProt P42574).
T1 construct: purchased Sigma-Aldrich (St. Louis, Mo.)
T1 sequence (P42574 29-175 limits assumed): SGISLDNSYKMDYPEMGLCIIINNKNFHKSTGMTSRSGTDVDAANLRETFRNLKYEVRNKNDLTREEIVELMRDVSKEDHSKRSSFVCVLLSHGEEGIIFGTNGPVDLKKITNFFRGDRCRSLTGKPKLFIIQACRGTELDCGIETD
T1 sequence (P42574 176-277 limits assumed): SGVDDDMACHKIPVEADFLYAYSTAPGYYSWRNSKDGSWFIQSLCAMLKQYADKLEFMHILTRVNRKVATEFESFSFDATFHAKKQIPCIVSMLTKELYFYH
Briefly: Enzyme inhibition assay, caspase 3 (fluorogenic Ac-DEVD-AMC).

The next experiment has as its target T2, caspase 7 (Homo sapiens, UniProt P55210).
T2 construct: purchased Sigma-Aldrich (St. Louis, Mo.)
T2 sequence (P55210 24-198 limits assumed): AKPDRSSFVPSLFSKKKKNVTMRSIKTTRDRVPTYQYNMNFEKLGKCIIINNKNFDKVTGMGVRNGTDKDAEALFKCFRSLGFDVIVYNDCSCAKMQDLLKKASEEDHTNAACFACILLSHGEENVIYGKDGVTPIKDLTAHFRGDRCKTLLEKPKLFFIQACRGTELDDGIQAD
T2 sequence (P55210 207-303 limits assumed): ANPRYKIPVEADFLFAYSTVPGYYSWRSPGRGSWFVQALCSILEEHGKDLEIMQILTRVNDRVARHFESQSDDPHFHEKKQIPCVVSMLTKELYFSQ
Description: Enzyme inhibition assay, caspase 7 (fluorogenic Ac-DEVD-AMC).

The target in another experiment is T3, caspase 6 (Homo sapiens, UniProt P55212).
T3 construct: purchased Sigma-Aldrich (St. Louis, Mo.)
T3 sequence (P55212 24-179 limits assumed): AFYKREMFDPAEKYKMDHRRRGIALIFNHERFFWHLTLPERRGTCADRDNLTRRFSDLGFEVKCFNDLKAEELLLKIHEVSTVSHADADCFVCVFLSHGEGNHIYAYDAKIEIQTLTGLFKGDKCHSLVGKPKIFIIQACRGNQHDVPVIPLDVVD
T3 sequence (P55212 194-293 limits assumed): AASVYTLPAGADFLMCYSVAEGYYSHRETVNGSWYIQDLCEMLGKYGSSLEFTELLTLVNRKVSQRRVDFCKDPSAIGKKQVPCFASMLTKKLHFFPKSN
Description: Enzyme inhibition assay, caspase 6 (fluorogenic Ac-VEID-AMC).

The target in the next experiment is T4, caspase 8 (Homo sapiens, UniProt Q14790).
T4 construct: purchased Sigma-Aldrich (St. Louis, Mo.)
T4 sequence (Q14790 217-374 limits assumed): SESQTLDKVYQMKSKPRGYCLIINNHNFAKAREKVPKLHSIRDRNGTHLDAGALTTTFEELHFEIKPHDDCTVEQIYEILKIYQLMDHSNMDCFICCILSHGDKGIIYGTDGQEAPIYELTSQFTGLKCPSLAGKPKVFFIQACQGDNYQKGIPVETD
T4 sequence (Q14790 385-479 limits assumed): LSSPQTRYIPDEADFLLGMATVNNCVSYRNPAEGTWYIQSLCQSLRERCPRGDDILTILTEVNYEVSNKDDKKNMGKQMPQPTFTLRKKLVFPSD
Description: Enzyme inhibition assay, caspase 8 (fluorogenic Ac-IETD-AMC).

In another experiment the target is T5, caspase 1 (Homo sapiens, UniProt P29466).
T5 construct: purchased BIOMOL Research Laboratories (Plymouth Meeting, Pa.)
T5 sequence (P29466 120-297 limits assumed): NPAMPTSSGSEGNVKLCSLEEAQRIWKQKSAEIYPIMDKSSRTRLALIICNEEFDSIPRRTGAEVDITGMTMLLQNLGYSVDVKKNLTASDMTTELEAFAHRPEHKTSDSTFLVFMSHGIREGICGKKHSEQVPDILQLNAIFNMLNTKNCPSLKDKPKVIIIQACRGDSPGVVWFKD
T5 sequence (P29466 317-404 limits assumed): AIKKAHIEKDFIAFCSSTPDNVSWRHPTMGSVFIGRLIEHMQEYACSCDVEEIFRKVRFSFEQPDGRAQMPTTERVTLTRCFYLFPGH
Briefly: Enzyme inhibition assay, caspase 1 (fluorogenic Ac-YVAD-AMC).

[1] abbreviates: Table 6, read-out: IC50 (nM) caspase-3.
The mark [2] stands for this setting: Table 6, read-out: IC50 (nM) caspase-7.
[3] abbreviates: Table 6, read-out: IC50 (nM) caspase-6.
Where [4] appears, read: Table 6, read-out: IC50 (nM) caspase-8.
Where [5] appears, read: Table 6, read-out: IC50 (nM) caspase-1.
[6] abbreviates: Table 1, read-out: IC50 (nM) Caspase 8.
The mark [7] stands for this setting: Table 1, read-out: IC50 (nM) Caspase 1.
The mark [8] stands for this setting: Table 7, read-out: IC50 (nM) Casp-8.
The mark [9] stands for this setting: Table 7, read-out: IC50 (nM) Casp-1.

Description for caspase 1: (§1) Enzyme Assays. Inhibition of recombinant human caspase-3 and other caspases by the isatin analogues was assessed using a fluorometric assay by measuring the accumulation of a fluorogenic product, 7-amino-4-methylcoumarin (7-AMC).
(§2) Enzyme Inhibition Assays. Recombinant human caspases (3, 6, 7, and 8) and their peptide-specific substrates (Ac-DEVDAMC, Ac-VEID-AMC, Ac-DEVD-AMC, and Ac-IETD-AMC, respectively) were purchased from Sigma-Aldrich (St. Louis, Mo.) with the exception of caspase 1 and its substrate (Ac-YVAD-AMC), which were obtained from BIOMOL Research Laboratories (Plymouth Meeting, Pa.). The enzymatic activity of caspases was determined by measuring the accumulation of the fluorogenic product 7-amino-4-methylcoumarin (AMC). All assays were prepared in 96-well format at a volume of 210 μL per well and consisted of 100 mM Na+ HEPES (pH 7.4), 10% sucrose, 100 mM NaCl, 0.1% CHAPS, 5 mM 2-mercaptoethanol, 2 mM EDTA, 10 μM Ac-YVAD-AMC (caspase 1); 20 mMNa^+ HEPES (pH 7.4), 10% sucrose, 100 mMNaCl, 0.1% CHAPS, 2 mM EDTA, 10 μM Ac-DEVD-AMC (caspase 3); 20 mM Na^+ HEPES (pH 7.4), 10% sucrose, 100 mM NaCl, 0.1% CHAPS, 2 mM EDTA, 10 μM Ac-VEID-AMC (caspase 6); 20 mM Na+ HEPES (pH 7.4), 100 mM NaCl, 10% sucrose, 0.1% CHAPS, 5 mM 2-mercaptoethanol, 2 mM EDTA, 10 μM Ac-DEVD-AMC (caspase 7); 20 mM Na+ HEPES (pH 7.4), 10% sucrose, 100 mM NaCl, 0.1% CHAPS, 2 mM EDTA, 10 μM Ac-IETD-AMC (caspase 8).
(§3) Recombinant caspases were first assayed to determine the optimal concentration for each experiment. Optimal concentrations were based in the linear range of the enzyme activation curves. Peptide inhibitors with known IC50 values were tested together with the compounds as a control for each caspase assay. […] Peptide and nonpeptide inhibitors were dissolved in DMSO, and a 2 serial dilution was performed prior to screening in order to obtain desired concentrations. 10 μL was added to each well containing 100 μL caspase solution and allowed to incubate on ice for 30 min. […] The final concentration of DMSO in all wells was 5% of the total volume. In caspase-1 and caspase-7 assays, 10 mM 2-mercaptoethanol was added to the substrate solution for full activation of the enzymes.
(§4) Compounds were tested in duplicate, and IC50 curves were calculated for all inhibitors assayed. Final IC50s were the average of three independent experiments.
Description for caspase 6: as §1, §2, §3, §4
Description for caspase 7: as §1, §2, §3, §4
Description for caspase-3: as §1, §2, §3, §4

What is called IC50 is the concentration at which inhibition is half-maximal. Take `CSc1ccc(CN2C(=O)C(=O)c3cc(S(=O)(=O)N4CCCC4COc4cccnc4)ccc32)cc1` (centres unmarked) [Compound 21d, 1-(4-Methylthiobenzyl)-5-(2-(pyridin-3-yl-oxymethyl)-pyrrolidine-1-sulfonyl)-1H-indole-2,3-dione]: the IC50 was 4.4 ± 1.4 nM on caspase-3 (setting [1]); 23.3 ± 0.7 nM on caspase 7 (setting [2]); above 5000 nM on caspase 6 (setting [3]); above 50000 nM on caspase 8 (setting [4]); above 50000 nM at caspase 1 (setting [5]).

As for `O=C1C(=O)N(Cc2ccc(OCCF)cc2)c2ccc(S(=O)(=O)N3CCC[C@H]3COc3cccnc3)cc21` [WC-II-100], the IC50 was 3.1 ± 0.4 nM on caspase-3 (Table 1, read-out: IC50 (nM) Caspase 3); 11.3 ± 0.6 nM at caspase 7 (Table 1, read-out: IC50 (nM) Caspase 7); 6900 nM at caspase 6 (Table 1, read-out: IC50 (nM) Caspase 6); above 50000 nM at caspase 8 (setting [6]); above 20000 nM on caspase 1 (setting [7]).

In the case of `O=C1C(=O)N(Cc2ccc(Br)cc2)c2ccc(S(=O)(=O)N3CCCC3COc3ccccc3)cc21` (centres unmarked) [Compound 25d, 1-(4-Bromo-benzyl)-5-(2-Phenoxymethyl-pyrrolidine-1-sulfonyl)-1H-indole-2,3-dione], the IC50 on caspase-3 (IC50 (nM) Casp-3, Table 7) was 9.85 ± 0.9 nM; against caspase-3 (IC50 (nM) Caspase 3, Table 1), 9.9 ± 0.9 nM; against caspase 7 (IC50 (nM) Casp-7, Table 7) it was 34.8 ± 1.4 nM; at caspase 7 (IC50 (nM) Caspase 7, Table 1), 34.8 ± 1.4 nM; against caspase 6 it was 8900 nM; at caspase 8 (setting [6]) it was above 50000 nM. Also, the half-inhibitory concentration (IC50) on caspase 8 (setting [8]) is above 50000 nM; at caspase 1 (setting [7]), above 15000 nM; at caspase 1 (setting [9]), above 15000 nM.

Turning to `O=C1C(=O)N(Cc2ccc(F)cc2)c2ccc(S(=O)(=O)N3CCCC3COc3cccnc3)cc21` (centres unmarked) [Compound 21e, 1-(4-Fluorobenzyl)-5-(2-(pyridin-3-yl-oxymethyl)-pyrrolidine-1-sulfonyl)-1H-indole-2,3-dione], the IC50 at caspase-3 (setting [1]) is 8.4 ± 2 nM; at caspase 7 (setting [2]) it was 15.1 ± 0.1 nM; at caspase 6 (setting [3]), above 5000 nM; on caspase 8 (setting [4]) it was above 50000 nM; at caspase 1 (setting [5]) it was above 10000 nM.

In the case of `N#CC(C#N)=C1C(=O)Nc2ccc(S(=O)(=O)N3CCCC3COc3ccccc3)cc21` (centres unmarked) [Compound 26, 2-[2-Oxo-5-(2-phenoxymethyl-pyrrolidine-1-sulfonyl)-1,2-dihydro-indol-3-yl-idene]-malononitrile], the IC50 on caspase-3 (Table 2, read-out: IC50 (nM) Caspase 3) was 272 ± 25 nM; on caspase-3 (Table 7, read-out: IC50 (nM) Casp-3), 272 ± 24.7 nM; at caspase-3 (read-out: IC50 for caspase-3), 272 nM; at caspase 7 (Table 2, read-out: IC50 (nM) Caspase 7), 1580 nM; on caspase 7 (Table 7, read-out: IC50 (nM) Casp-7) it was 1580 ± 163 nM; on caspase 7 (read-out: IC50 for caspase-7), 1580 nM. In addition, the IC50 was 407 ± 15 nM on caspase 6 (Table 2, read-out: IC50 (nM) Caspase 6); 407 ± 15 nM on caspase 6 (Table 7, read-out: IC50 (nM) Casp-6); above 50000 nM on caspase 8 (Table 2, read-out: IC50 (nM) Caspase 8); above 50000 nM at caspase 8 (setting [8]); 1830 nM on caspase 1 (Table 2, read-out: IC50 (nM) Caspase 1); 1830 ± 128 nM on caspase 1 (setting [9]).

Consider `CN1C(=O)C(=O)c2cc(S(=O)(=O)N3CCCC3COc3cccnc3)ccc21` (centres unmarked) [Compound 21a, 1-Methyl-5-(2-(pyridin-3-yl-oxymethyl)-pyrrolidine-1-sulfonyl)-1H-indole-2,3-dione], for which the IC50 on caspase-3 (IC50 (nM) caspase-3, Table 6) is 23.3 ± 3.1 nM; on caspase 7 (setting [2]), 94.9 ± 21.6 nM; at caspase 6 (setting [3]), above 5000 nM; against caspase 8 it was above 50000 nM; on caspase 1 (setting [5]), above 10000 nM.
